Reference: patent US9056876B2, “Substituted 1H-pyrazolo[3′,4′,4,5]thieno[2,3-b]pyridin-3-amine analogs as positive allosteric modulators of the muscarinic acetylcholine receptor M4” (VANDERBILT UNIVERSITY, priority 2011, dated 2015)

Columns and labels:
[1] = biological target: T1, mAChR M4 (UniProt P08173); assay: mAChR M4 cell-based functional assay (calcium mobilization, Fluo-4, FDSS); details: CHO-K1 cells; for pEC50: positive allosteric modulator activity, EC20 acetylcholine response; for EC50: positive allosteric modulator activity: concentration-dependent increase in the EC20 acetylcholine response, >10 μM estimated for low potency (no plateau)
T1 construct: hM1 and hM4 cDNAs were purchased from Missouri S&T cDNA Resource
T1 sequence (P08173 1-479): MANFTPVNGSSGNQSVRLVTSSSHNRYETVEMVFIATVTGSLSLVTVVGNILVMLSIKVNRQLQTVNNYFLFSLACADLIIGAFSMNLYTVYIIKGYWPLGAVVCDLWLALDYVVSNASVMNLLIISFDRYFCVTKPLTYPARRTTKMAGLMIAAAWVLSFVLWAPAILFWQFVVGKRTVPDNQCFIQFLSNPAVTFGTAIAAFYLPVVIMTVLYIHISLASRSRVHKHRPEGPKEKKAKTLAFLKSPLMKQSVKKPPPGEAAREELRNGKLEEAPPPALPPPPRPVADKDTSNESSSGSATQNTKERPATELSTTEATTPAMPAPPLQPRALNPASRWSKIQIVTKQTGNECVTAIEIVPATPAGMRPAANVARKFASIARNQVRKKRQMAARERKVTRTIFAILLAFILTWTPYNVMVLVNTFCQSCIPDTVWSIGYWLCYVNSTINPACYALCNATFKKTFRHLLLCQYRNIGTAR
Outline: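 Compound responses (11-point, 1:3 series) were followed as calcium fluorescence ratio on FDSS in Gqi5-coupled M4 CHO-K1 cells (human or rat) loaded with Fluo-4. Acetylcholine followed at EC20 (144 s) then EC80 (230 s). EC50/Emax from four-parameter logistic fits of direct, EC20-potentiating or EC80-inhibiting effects.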

[2] = in vivo; cited from earlier work
[3] = test system: Alzheimer's disease patients; details: cited from earlier work
[4] = test system: animal models; details: cited from earlier work

Compound | pEC50 [1] | EC50 [1] [µM] | further results
Cc1nc2sc3c(NCc4ccc(F)cc4)n[nH]c3c2c(C)c1Cl [Compound 145, 7-chloro-N-(4-fluorobenzyl)-6,8-dimethyl-1H-pyrazolo[3′,4′:4,5]thieno[2,3-b]pyridin-3-amine] | <5.00 | > 10 | 
Cc1nc2sc3c(NCc4ccc(F)c(F)c4)n[nH]c3c2c(C)c1Cl [Compound 146, 7-chloro-N-(3,4-difluorobenzyl)-6,8-dimethyl-1H-pyrazolo[3′,4′:4,5]thieno[2,3-b]pyridin-3-amine] | <5.00 | > 10 | 
Cc1nc2sc3c(NCc4ccccc4F)n[nH]c3c2c(C)c1Cl [Compound 147, 7-chloro-N-(2-fluorobenzyl)-6,8-dimethyl-1H-pyrazolo[3′,4′:4,5]thieno[2,3-b]pyridin-3-amine] | <5.00 | > 10 | 
Cc1nc2sc3c(Nc4ccncc4)nn(C)c3c2c(C)c1Cl [Compound 148, 7-chloro-1,6,8-trimethyl-N-(pyridin-4-yl)-1H-pyrazolo[3′,4′:4,5]thieno[2,3-b]pyridin-3-amine] | <5.00 | > 10 | 
Cc1ccc2c(n1)sc1c(N)n[nH]c12 [Compound 149, 6-methyl-1H-pyrazolo[3′,4′:4,5]thieno[2,3-b]pyridin-3-amine] | <5.00 | > 10 | 
Cc1ccc2c(n1)sc1c(NC(=O)c3ccccc3)n[nH]c12 [Compound 150, N-(6-methyl-1H-pyrazolo[3′,4′:4,5]thieno[2,3-b]pyridin-3-yl)benzamide] | <5.00 | > 10 | 
Cc1ccc2c(n1)sc1c(NC(=O)c3ccc(Br)cc3)n[nH]c12 [Compound 151, 4-bromo-N-(6-methyl-1H-pyrazolo[3′,4′:4,5]thieno[2,3-b]pyridin-3-yl)benzamide] | <5.00 | > 10 | 
Cc1cc(C)c2c(n1)sc1c(NC(=O)c3ccccc3)nn(C)c12 [Compound 152, N-(1,6,8-trimethyl-1H-pyrazolo[3′,4′:4,5]thieno[2,3-b]pyridin-3-yl)benzamide] | <5.00 | > 10 | 
Cc1cc(C)c2c(n1)sc1c(NC(=O)C3CCCCC3)nn(C)c12 [Compound 153, N-(1,6,8-trimethyl-1H-pyrazolo[3′,4′:4,5]thieno[2,3-b]pyridin-3-yl)cyclohexanecarboxamide] | <5.00 | > 10 | 
Cc1cc(C)c2c(n1)sc1c(NC(=O)c3ccc(F)cc3)nn(C)c12 [Compound 154, 4-fluoro-N-(1,6,8-trimethyl-1H-pyrazolo[3′,4′:4,5]thieno[2,3-b]pyridin-3-yl)benzamide] | <5.00 | > 10 | 
COc1ccc(Cn2nc(N(C)C)c3sc4nc(C)cc(C)c4c32)cc1 [Compound 155, 1-(4-methoxybenzyl)-N,N,6,8-tetramethyl-1H-pyrazolo[3′,4′:4,5]thieno[2,3-b]pyridin-3-amine] | <5.00 | > 10 | 
Cc1ccc2c(n1)sc1c(NCCC(C)C)n[nH]c12 [Compound 156, N-isopentyl-6-methyl-1H-pyrazolo[3′,4′:4,5]thieno[2,3-b]pyridin-3-amine] | <5.00 | > 10 | 
Cc1ccc2c(n1)sc1c(NC(=O)c3ccccc3)nn(C)c12 [Compound 157, N-(1,6-dimethyl-1H-pyrazolo[3′,4′:4,5]thieno[2,3-b]pyridin-3-yl)benzamide] | <5.00 | > 10 | 
Cc1ccc2c(n1)sc1c(NC(=O)c3ccc(Br)cc3)nn(C)c12 [Compound 158, 4-bromo-N-(1,6-dimethyl-1H-pyrazolo[3′,4′:4,5]thieno[2,3-b]pyridin-3-yl)benzamide] | <5.00 | > 10 | 
Cc1ccnc2sc3c(NC(=O)c4ccccc4)nn(C)c3c12 [Compound 159, N-(1,8-dimethyl-1H-pyrazolo[3′,4′:4,5]thieno[2,3-b]pyridin-3-yl)benzamide] | <5.00 | > 10 | 
Cc1ccnc2sc3c(NCC4CC4)nn(C)c3c12 [Compound 160, N-(cyclopropylmethyl)-1,8-dimethyl-1H-pyrazolo[3′,4′:4,5]thieno[2,3-b]pyridin-3-amine] | <5.00 | > 10 | 
COc1ccc(Cn2nc(N)c3sc4nc(C)c(Cl)c(C)c4c32)cc1 [Compound 161, 7-chloro-1-(4-methoxybenzyl)-6,8-dimethyl-1H-pyrazolo[3′,4′:4,5]thieno[2,3-b]pyridin-3-amine] | <5.00 | > 10 | 
Cc1cc(C)c2c(n1)sc1c(NC3CCN(C(C)C)CC3)nn(C)c12 [Compound 162, N-(1-isopropylpiperidin-4-yl)-1,6,8-trimethyl-1H-pyrazolo[3′,4′:4,5]thieno[2,3-b]pyridin-3-amine] | <5.00 | > 10 | 
Cc1cc(C)c2c(n1)sc1c(NCc3nccn3C)nn(C)c12 [Compound 163, 1,6,8-trimethyl-N-((1-methyl-1H-imidazol-2-yl)methyl)-1H-pyrazolo[3′,4′:4,5]thieno[2,3-b]pyridin-3-amine] | <5.00 | > 10 | 
Cc1cc(C)c2c(n1)sc1c(NC(C)CS(C)(=O)=O)nn(C)c12 (centres unmarked) [Compound 164, 1,6,8-trimethyl-N-(1-(methylsulfonyl)propan-2-yl)-1H-pyrazolo[3′,4′:4,5]thieno[2,3-b]pyridin-3-amine] | <5.00 | > 10 | 
COCCn1nc(N)c2sc3nc(C)cc(C)c3c21 [Compound 165, 1-(2-methoxyethyl)-6,8-dimethyl-1H-pyrazolo[3′,4′:4,5]thieno[2,3-b]pyridin-3-amine] | <5.00 | > 10 | 
CCCn1nc(N)c2sc3nc(C)cc(C)c3c21 [Compound 166, 6,8-dimethyl-1-propyl-1H-pyrazolo[3′,4′:4,5]thieno[2,3-b]pyridin-3-amine] | <5.00 | > 10 | 
COCCn1nc(NCc2ccco2)c2sc3nc(C)cc(C)c3c21 [Compound 167, N-(furan-2-ylmethyl)-1-(2-methoxyethyl)-6,8-dimethyl-1H-pyrazolo[3′,4′:4,5]thieno[2,3-b]pyridin-3-amine] | <5.00 | > 10 | 
Nc1c2c(nc3ccccc13)CCCC2 [tacrine] |  |  | elevated liver transaminases, share of patients [2]: about 30%
CCCCCCOc1nsnc1C1=CCCN(C)C1 [xanomeline] |  |  | psychotic behavioral symptoms (delusions, suspiciousness, vocal outbursts, hallucinations) [3]: reduce psychotic behavioral symptoms; catalepsy ([4]; in vivo): without causing catalepsy; activity in animal models ([4]; profiles similar to known antipsychotic drugs): active in animal models
